{
  "source": "patent US20090176741A1",
  "about": "“MODULATION OF THE IMMUNE SYSTEM BY INOSITOL PHOSPHOLIPIDS” (priority 2006, published 2009)",
  "key": {"[1]": {"system": "DN32 cells (NKT cell line) co-cultured with CD1d transfected T84D cells", "test": "CD1d-restricted NKT cell activation (T84D/DN32 co-culture, IL-2 ELISA)", "assay_type": "cell-based, murine", "conditions": "for CD1d dependent NKT cell activation (IL-2 present in the supernatants): solvent control, PI or myo-inositol, FIG. 2", "experimental": "(§1) A CD1d transfected epithelial cell line T84D was pulsed with alpha-GalactosylCeramide and co-cultured with PI at different concentrations. NKT cell activation was determined by measurement of IL-2 present in the supernatants. FIG. 2: Phosphatidyl-inositol but not myo-inositol blocks CD1d dependent NKT cell activation. A CD1d transfected epithelial cell line T84D was pulsed with a GalactosylCeramide and co-cultured with either solvent control, PI or myo-inositol. NKT cell activation was determined by measurement of IL-2 present in the supernatants. FIG. 3: Differential effect of PI and PS on cellular viability and immune suppression. T cells were suspended at 10^6 cells/ml in 24-wells plates (1 ml suspension per well). Cells were either left untreated (PMA 0 Cal 0) or activated with 5 ng/ml PMA +0.1 μg/ml calcium ionophore A23187 (PMA 5 ng/ml Cal 0.1 ug/ml) in the presence of PI or PS at the indicated concentrations (expressed in pg/ml). Panel A: Following a 24 hour incubation period in the presence of the indicated lipids and stimuli cellular viability was measured using flow cytometric detection of 7-AAD stained cells. […] FIG. 4: IPL strongly affects early survival in oxazolone colitis model. For experimental details see Example 2A. FIG. 5: Suppression of IL-2 production by intestinal T cells upon IPL intrarectal treatment of oxazolone-colitis mice. Mice were treated with saline (group A) or PI (group B) twenty minutes prior to challenge with oxazolone to induce colitis. Mice were sacrificed and intestinal T cells were analyzed for IL-2 production upon stimulation by aCD3/aCD28 during a period of 48 hours (panel A) or 72 hours (panel B). […] C Histopathology of the whole colon was assessed by blindly scoring each separate field of view at a 4× magnification by means of a TNBS score. […]\nOn day 0, T84D cells (a human epithelial cell line transfected with CD1d) were incubated overnight with a GalCer (10 mg/ml). […] Supernatants were collected and IL-2 cytokine production by DN32 (reflecting T cell activation) was determined by means of ELISA."}, "[2]": {"system": "OVA-induced asthma", "test": "OVA asthma model, intra-tracheal PI", "assay_type": "in vivo, mice", "conditions": "PI intra-tracheally before OVA aerosol challenge", "experimental": "On days one and eight male wildtype Balb/c mice (Charles Rivers) of 7-10 weeks old were sensitized by intra-peritoneal (i.p.) injection of 20 μg of OVA (Sigma), emulsified in 2.25 mg of alum (AlumImuject; Pierce). On days 15, 16 and 17 mice were sedated and received 80 μl of one of three solutions of PI (0 μg/ml, 200 μg/ml or 2 mg/ml) intra-tracheally (i.t). Subsequently the mice were challenged by 20 minutes of inhalation exposure to 60 μl of aerosols containing OVA (1% in saline). All three groups contained 8 mice. Mice were sacrificed at day 18.\nLungs were flushed with 3 ml saline and the cells in this Broncho Alveolar Lavage (BAL) were identified and quantified through FACS analysis. Subsequently the lungs were freeze-fixed, cut into 5 μm tissue sections and stained with May-Grunwald-Giemsa (MGG). The stained sections were examined for the presence of inflammatory cell infiltration such as eosinophils."}, "[3]": {"system": "T cells", "test": "Cellular viability of T cells (flow cytometric 7-AAD detection)", "assay_type": "cell-based", "conditions": "FIG. 3A", "experimental": "as §1, with “B). ALN=axillair LN; MLN=mediastinal LN; ILN=iliacal LN. For further details see Example 2A. FIG. 6: Treatment with IPL (non-liposomal aerosol) prevents the typical histo-pathological changes that are associated with an asthma mouse model. For experimental details see Example 2B.” for “B).”"}, "[4]": {"system": "oxazolone colitis", "test": "Oxazolone colitis model, intra-rectal PI", "assay_type": "in vivo, mice", "experimental": "On day 0 male wild type black/6 mice (Charles Rivers) of 7-10 weeks old were sensitized epicutaneously with 150 μl 3% 4-ethoxymeyhylene-2-phenyl-oxazolin-5-one (oxazolone; Sigma) in 100% ethanol. At day 5, mice were challenged, under anesthesia of ketamine (80 mg/kg) and xylazine (10 mg/kg), by rectal administration of 100 μl 2% oxazolone in aqueous ethanol (50%). Twenty minutes prior to challenge mice were treated intra-rectally with 100 μl saline (control) or PI (2 mg/ml). All […] groups contained 8 mice. Mice were weighted at day 5, 6, 7, and 8 and were sacrificed at day 8.\nColonic tissue was fixed with 4% natural buffered formalin solution, embedded in paraffin, cut into 5μ tissue sections, and stained with hematoxylin and eosin (H&E). Using a score that has been described previously for oxazolone colitis (REF), the stained sections were examined for evidence of colitis. Spleen, axillary lymph nodes (ALN), mesenteric lymph nodes (MLN) and iliacal lymph nodes (ILN) were isolated and stimulated ex-vivo with either PBS (control) or with aCD3/aCD28 (100 μl of 2 μg/ml each) in IMDM medium. After 48 and 72 hours, the production of IL-2 was measured by means of ELISA (Beckton & Dickinson)."}, "[5]": {"test": "Observation after intravenous PI", "assay_type": "in vivo, mice", "conditions": "200 μl of PI 2 mg/ml (400 μg) intravenously, 3 hour observation period", "description": "It will be recognized by those skilled in the art that the optimal quantity and spacing of individual dosages for achieving the therapeutic effects of the pharmaceutical composition, food item or food supplement described herein may easily be determined by the skilled person. They will be determined by the nature and extent of the condition being treated, as well as by the form, route and site of administration, and the particular individual undergoing treatment, and that such optima can be determined by conventional techniques. Typically, the treatment will involve the administration of inositol phospholipid in amount of approximately 0.001 to 1 gram , preferably 0.005 to 0.5 gram, more preferably 0.01 to 0.1 gram per kilogram of body weight per 24 hours. It will also be appreciated by those skilled in the art that the optimal dosage regimen, i.e. the number of doses, can be ascertained using conventional course of treatment determination tests well known in the art. […] Generally speaking, a therapeutic dosing regimen will involve the administration of the selected dosage formulation comprising an inositol phospholipid, e.g. a PI aerosol spray, at least once daily, preferably one to four times daily, until the symptoms have subsided. Or given in times of remission, in order to prevent a disease flare-up (exacerbation). […]"}, "[6]": {"system": "TNBS colitis", "test": "TNBS colitis model, intraperitoneal PI", "assay_type": "in vivo, mice", "experimental": "Colitis was induced as described previously (Scheiffele, F. and Fuss, I J., 2001, Curr. Protocols Immunol. 15.19.1-15.19.14). In short, on day-7 SJL mice were sensitized epicutaneously with 150 μl 2.5% 2,4,6-trinitrobenzene sulfonic acid (TNBS; Sigma) in 50% ethanol. On day 0, mice were challenged, under anesthesia of isoflurane gas, by rectal administration of 150 μl 2.5% TNBS in 50% ethanol. Negative control mice were challenged with 50% ethanol only. […] Positive (TNBS treated) and negative (ethanol treated) control mice were treated with an intraperitoneal (i.p.) injection of 150 μl of saline at 0, 12, 24, 36, 48 and 60 h. The PI treatment group was treated with […] of 5 mg/ml PI suspended in saline at the same time points. Mice were weighted at 0, 12, 24, 36, 48 and 60 h and were sacrificed at 60 h. Colonic tissue was folded into Swiss rolls, fixed in 4% natural buffered formalin solution and embedded in paraffin. Sections of 5 μm thickness were generated, stained with hematoxylin (Vector Laboratories) and eosin (Sigma) and analyzed by microscopy. Histology was quantified by scoring each separate field of view at a 4× magnification from distal to proximal by means of a previously described TNBS scoring system (Scheiffele, F. and Fuss, I J., 2001, Curr. Protocols Immunol. 15.19.1-15.19.14). Single cell suspensions were made of iliac lymph nodes (ILNs) and mesenteric lymph nodes (MLNs) by sieving trough an 80 μm filter and subsequently lymphocytes were cultured and stimulated with 2 μg/ml anti-CD3 and 2 μg/ml anti-CD28 antibodies. After 48 h of culture the supernatant was collected and release of the pro-inflammatory cytokines IFN-γ and IL-17 (Zhang, Z. et al., 2006, Inflamm. Bowel Dis., 12:382-388) and the anti-inflammatory cytokine IL-10 were measured by means of ELISA (IL-17) or CBA (IFN-γ and IL-10)."}, "[7]": {"system": "T cells", "test": "T cell activation measured by IL-2 cytokine production", "assay_type": "cell-based", "conditions": "for T cell activation measured by IL-2 cytokine production: PMA + calcium ionophore A23187", "experimental": "as §1, with “B). ALN=axillair LN; MLN=[…] LN; ILN=iliacal LN. For further details see Example 2A. FIG. 6: Treatment with IPL (non-liposomal aerosol) prevents the typical histo-pathological changes that are associated with an asthma mouse model. For experimental details see Example 2B. FIG. 7: Treatment with PI (aerosol) prevents the eosinophilia that is associated with an asthma mouse model. For experimental details see Example 2B. FIG. 8: effects of intraperitoneal injection of PI in the TNBS colitis model. […] B The percentage of weight during TNBS colitis is shown. Each dot represents the mean of weights of each group per 0.5 day. Error bars indicate the standard error of the mean. Asterisks indicate significant differences (p<0.05) between TNBS treated mice that received i.p. injections of PI and saline.” for “B).”"}, "[8]": {"system": "activated peripheral blood cells", "conditions": "Caselli et al. 1992; cited from earlier work"}, "[9]": {"conditions": "24 hour incubation, untreated or 5 ng/ml PMA + 0.1 μg/ml A23187"}, "[10]": {"conditions": "anti-CD3/anti-CD28 re-stimulation, 48 h, vs saline treated group, p<0.05, FIG. 8D"}},
  "data": [
    {"compound": "O[C@H]1[C@H](O)[C@@H](O)[C@H](O)[C@@H](O)[C@H]1O", "note": "[myo-inositol, reference compound]", "values": [
      {"measurement": "CD1d dependent NKT cell activation (IL-2 present in the supernatants)", "setting": "[1]", "result": "no significant suppressive effect"}
    ]},
    {"compound": "phosphatidyl inositol [PI]", "values": [
      {"measurement": "histopathological changes of the lungs", "setting": "[2]; FIG. 6", "result": "reduces"},
      {"measurement": "influx of eosinophils (BAL)", "setting": "[2]; FIG. 7", "result": "strongly inhibits"},
      {"measurement": "cellular viability", "setting": "[3]; [9]", "result": "does not significantly affect cellular viability"},
      {"measurement": "cellular viability", "setting": "[3]; up to the highest dose tested (100 μg/ml)", "result": "does not affect cellular viability"},
      {"measurement": "weight loss", "setting": "[4]; 100 μl PI 2 mg/ml intra-rectally 20 min prior to oxazolone challenge", "result": "diminished weight loss"},
      {"measurement": "survival", "setting": "[4]; 100 μl PI 2 mg/ml intra-rectally 20 min prior to oxazolone challenge, FIG. 4", "result": "increased survival"},
      {"measurement": "IL-2 production upon ex-vivo stimulation of intestinal T cells", "setting": "[4]; aCD3/aCD28 stimulation, 48 and 72 hours, FIG. 5", "result": "suppressed"},
      {"measurement": "symptoms or adverse signs", "setting": "[5]", "result": "did not show any symptoms or adverse signs"},
      {"measurement": "general appearance (fur, behavior)", "setting": "[6]; PI 5 mg/ml i.p. every 12 h vs saline, FIG. 8A", "result": "appeared less diseased"},
      {"measurement": "weight loss", "setting": "[6]; PI i.p. vs control saline treatment, FIG. 8B", "result": "dramatic reduction in weight loss"},
      {"measurement": "start of weight recovery", "setting": "[6]; PI i.p., saline treated mice did not re-gain weight, FIG. 8B", "result": 1.5, "unit": "days"},
      {"measurement": "IL-10 production", "setting": "[6]; anti-CD3/anti-CD28 re-stimulation, 48 h, vs saline treated group, FIG. 8D", "result": "no difference"},
      {"measurement": "IFN-γ production by MLNs", "setting": "[6]; [10]", "result": "significantly less production"},
      {"measurement": "IL-17 production by ILNs and MLNs", "setting": "[6]; [10]", "result": "significantly less production"},
      {"measurement": "colon histology (TNBS score)", "setting": "[6]; day 3, field of view number 5, FIG. 8C", "result": "near normal histology"},
      {"measurement": "T cell activation measured by IL-2 cytokine production", "setting": "[7]; FIG. 3B", "result": "inhibitory effect"},
      {"measurement": "reversibility of the suppressive effect", "setting": "[7]; data not shown", "result": "reversible"},
      {"measurement": "T cell activation", "setting": "[7]; phorbol ester and calcium ionophore, or stimulation of CD3 and CD28, FIG. 3B", "result": "directly inhibit"},
      {"measurement": "DNA synthesis in activated peripheral blood cells", "setting": "[8]", "result": "only partially effective"},
      {"measurement": "NKT cell activation (IL-2 present in the supernatants)", "setting": "[1]; T84D pulsed with alpha-GalactosylCeramide, PI at different concentrations, FIG. 1", "result": "Dose-dependent inhibition"},
      {"measurement": "CD1d dependent NKT cell activation (IL-2 present in the supernatants)", "setting": "[1]", "result": "blocks"}
    ]},
    {"compound": "phosphatidyl serine [PS, reference compound]", "values": [
      {"measurement": "cellular viability", "setting": "[3]; [9]", "result": "toxic for activated cells in a dose-dependent manner"},
      {"measurement": "T cell activation measured by IL-2 cytokine production", "setting": "[7]; FIG. 3B", "result": "stimulatory effect"},
      {"measurement": "DNA synthesis in activated peripheral blood cells", "setting": "[8]", "result": "inhibition"}
    ]}
  ]
}
